# Measured values published in PMC8761492 (Life Science Alliance, 2022).
# Several values for one entry are separate records, joined by “and”; a condition that tells them apart may be missing. Equal values may be shown once. Read-outs that look alike come from different tables or passages of the source. Starred links: 1 amine or outer side, 2 acyl side, 3 side chain; linkers in the order of their positions; H or OH if unused. Positions of bridges follow the written chain, without caps; N, C: chain ends. Non-standard residues stand in square brackets, D forms with d. Residues, ends and D or L forms follow the SMILES beside them. *: point of attachment. X1 = CC[C@H](C)[C@@H](N[*:1])[C@@H](O)CC(=O)O[C@H](C(=O)[C@H](C)C(=O)[*:2])C(C)C; NMeY = CN[C@@H](Cc1ccc(O)cc1)C(=O)O; dNMeL = CN[C@H](CC(C)C)C(=O)O; Pyruvoyl = CC(=O)C(=O)*
# Key:
# CYP3A4 = test system: CYP3A4; set-up: method as in study protocol; conditions: in vitro studies; ref study protocol; cited from earlier work
# HCoV-229E = experiment: Protocol estimate of target concentrations from the HCoV-229E experiment; conditions: from IC50 0.555 µg/l assuming a Hill slope of 1
# [1] = as above; conditions: bovine, cell culture medium with 10% bovine serum
# HCoV-229E-GFP virus = experiment: microbe, parasite or virus in culture; format: cell-based, human coronavirus 229E; conditions: Huh-7 cells
# COVID-19 = experiment: APLICOV-PC: post hoc analysis of hospital discharge; format: in vivo, human
# Procedure: Post hoc analyses were conducted to (1) assess disease severity at baseline (mild, moderate, severe COVID-19 by FDA criteria) ([23]) and (2) assess covariates associated with efficacy end points, including hospital discharge by Day 15 or Day 8.
# The Kaplan–Meier method was used for the description of time to event end points and the median and the 95% confidence intervals were provided.
# SARS-CoV-2 [2] = test system: SARS-CoV-2; set-up: method as in PMID 33495306; conditions: in vivo; cited from earlier work
# [3] = cited from earlier work
# [4] = human, cited from earlier work
# [5] = Plasma protein binding by equilibrium dialysis, rat plasma; format: in vitro ADME; conditions: male, CD, independent of drug concentration
# Procedure: The binding of plitidepsin to plasma proteins was determined in vitro at three concentrations (100, 250 and 500 ng/ml) in male rat, dog and human plasma ([53]).
# Rat (CD), beagle dog, and human blood was collected at Aptuit Srl from at least three male donors, and plasma prepared by centrifuging blood at 2,000g, 4°C for 10 min. Human plasma was obtained from healthy and fasted male volunteers. Na-heparin was used as the anti-coagulant for all species. All plasma was stored at approximately −20°C and thawed only once, on the day of the experiment.
# Plasma protein binding was assessed using Rapid Equilibrium Dialysis plates pre-loaded with equilibrium dialysis membrane inserts (MWCO ∼8 kD).
# Separation of free compound from protein-bound material was achieved by dialysis of the sample through the membrane under appropriate shaking at 37°C. The suitability of equilibrium dialysis as a method for protein binding determination of plitidepsin was assessed.
# Before experimentation, the time required to reach equilibrium was determined in male rat and human plasma at one concentration (250 ng/ml) and six selected time points (2, 3, 4, 5, 6, and 7 h) at 37°C. […]
# SARS-CoV-2 [6] = test system: SARS-CoV-2; set-up: method as in PMID 33495306; conditions: SARS-CoV-2 in vitro; cited from earlier work
# [7] = test system: SARS-CoV-2 (βCoV/KOR/KCDC03/2020); experiment: microbe, parasite or virus in culture; format: cell-based; conditions: Severe acute respiratory syndrome coronavirus 2, Vero
# SARS-CoV = format: cell-based; conditions: Vero E6 cells; 50 nM; 48 hpi
# SARS-CoV-2 B.1.1.7 = experiment: microbe, parasite or virus in culture; format: cell-based; conditions: 24 h, mean ± SEM
# SARS-CoV-2/WA1 = experiment: SARS-CoV-2 infectivity in HeLa-ACE2 cells (viral NP); format: cell-based; conditions: Severe acute respiratory syndrome coronavirus 2, HeLa-ACE2, 48 h
# [8] = 1-hour D1,8,15 q4wk, ref phase 1 programme
# [9] = 1-hour iv D1-5 q3wk, ref APL-A-004-98
# [10] = 3-hour D1,15 q4wk, ref phase 1 programme
# [11] = 24-hour D1,8,15 q4wk, ref phase 1 programme
# [12] = 24-hour D1,15 q4wk, plitidepsin alone, ref phase 1 programme
structure (smiles),measurement,setting,value
CC[C@H](C)[C@H]1NC(=O)[C@@H](NC(=O)[C@@H](CC(C)C)N(C)C(=O)[C@@H]2CCCN2C(=O)C(C)=O)[C@@H](C)OC(=O)[C@H](Cc2ccc(OC)cc2)N(C)C(=O)[C@@H]2CCCN2C(=O)[C@H](CC(C)C)NC(=O)[C@@H](C)C(=O)[C@H](C(C)C)OC(=O)C[C@@H]1O [Plitidepsin] (Pyruvoyl-P[dNMeL]T[X1]LP[NMeY](Me); ester 3-C),major enzyme involved in plitidepsin metabolism,CYP3A4,CYP3A4
same,IC90 estimated,HCoV-229E,4.995 ng/mL
same,fraction unbound,[1],> 0.96
same,concentration of plitidepsin with antiviral effect on HCoV-229E-GFP,"HCoV-229E-GFP virus; as low as, equals 0.5 nM",≤ 0.555 µg/L
same,IC50,"HCoV-229E-GFP virus; Human coronavirus 229E, study protocol, read-out: IC50 assumed from the HCoV-229E-GFP experiment",0.5 nM and 0.000555 µg/mL
same,discharge rate at Day 15,COVID-19; 1.5 mg/day,78.6%
same,patients achieving hospital discharge by Day 8,COVID-19; 1.5 mg/day,42.9%
same,discharge rate at Day 15,COVID-19; 2 mg/day,93.3%
same,patients achieving hospital discharge by Day 8,COVID-19; 2 mg/day,60%
same,discharge rate at Day 15,COVID-19; 2.5 mg/day,73.3%
same,patients achieving hospital discharge by Day 8,COVID-19; 2.5 mg/day,66.7%
same,median time to discharge,COVID-19; mild COVID-19 at baseline,7 days
same,discharge rate by Day 8,"COVID-19; mild disease, 4 of 6",66.7%
same,discharge rate by Day 15,"COVID-19; mild disease, 6 of 6",100%
same,median time to discharge,COVID-19; moderate COVID-19 at baseline,7 days
same,patients discharged beyond day 8,"COVID-19; moderate disease at baseline, 1.5 mg/day, three of eight",38%
same,patients discharged beyond day 8,"COVID-19; moderate disease at baseline, 2.0 mg/day, three of seven",43%
same,patients discharged by day 8,"COVID-19; moderate disease at baseline, 2.5 mg/day",8 of 8
same,discharge rate by Day 8,"COVID-19; moderate disease, 17 of 23",73.9%
same,discharge rate by Day 15,"COVID-19; moderate disease, 22 of 23",95.7%
same,discharge rate by day 8,"COVID-19; overall, 25 of 44",56.8%
same,discharge rate by day 15,"COVID-19; overall, 36 of 44",81.8%
same,median time to discharge,COVID-19; severe COVID-19 at baseline,14 days
same,discharge rate by Day 8,"COVID-19; severe disease, 4 of 15",27%
same,discharge rate by Day 15,"COVID-19; severe disease, 8 of 15",53.3%
same,viral load in lungs,SARS-CoV-2 [2],significant reduction in the viral load in lungs
same,MTD,[3]; [8],3.60 mg/m2
same,RD,[3]; [8],3.2 mg/m2
same,MTD,[3]; [9],1.35 mg/m2
same,RD,[3]; [9],1.2 mg/m2
same,MTD,[3]; [10],6 mg/m2
same,RD,[3]; [10],5 mg/m2
same,MTD,[3]; [11],4.50 mg/m2
same,RD,[3]; [11],3.75 mg/m2
same,MTD,[3]; [12],6 mg/m2
same,RD,[3]; [12],5 mg/m2
same,recommended dose for subsequent phase 2 studies,"[3]; cancer patients, daily over 5 consecutive days",1.2 mg/m^2/day
same,half-life,"[4]; plasma concentrations, non-compartmental analysis, ref study APL-B-015-14",48.1 h
same,half-life,"[4]; whole blood concentrations, ref pharmacokinetic population analysis",161 h
same,fraction unbound,[5],0.04
same,IC90,SARS-CoV-2 [6],0.88 nM
same,IC50,[7]; Boryung Pharmaceuticals,3.26 nM
same,IC90,[7]; estimated from IC50 and Hill slope,9.38 nM
same,decrease in SARS-CoV genomic RNA accumulation,SARS-CoV,10^4 fold
same,IC50,"SARS-CoV-2 B.1.1.7; Severe acute respiratory syndrome coronavirus 2, Caco-2, pretreated 2 h",6.12 nM
same,IC50,"SARS-CoV-2 B.1.1.7; Severe acute respiratory syndrome coronavirus 2, Calu-3, pretreated 2 h",5.87 nM
same,IC50,SARS-CoV-2/WA1; read-out: Antiviral IC50,0.201 nM
same,IC90,SARS-CoV-2/WA1; read-out: Antiviral IC90,0.881 nM
